For one assay, the target named is T1, Caspase-1 (Homo sapiens, UniProt P29466).
T1 sequence (P29466 120-297 limits assumed): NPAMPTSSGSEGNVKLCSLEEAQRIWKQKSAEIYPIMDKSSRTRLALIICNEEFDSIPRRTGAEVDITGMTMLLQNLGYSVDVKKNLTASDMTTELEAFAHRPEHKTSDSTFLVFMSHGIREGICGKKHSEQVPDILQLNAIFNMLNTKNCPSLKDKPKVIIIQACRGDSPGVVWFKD
T1 sequence (P29466 317-404 limits assumed): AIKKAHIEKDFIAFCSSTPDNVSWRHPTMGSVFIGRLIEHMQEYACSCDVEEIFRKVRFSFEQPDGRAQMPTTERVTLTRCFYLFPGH
Nature of the assay: Caspase-1 enzyme inhibition (Ki). It counts as biochemical. As to conditions: substrate Suc-YVAD-pNA 80 μM, 37° C., pH 7.5. Here is the method: Ki values for test compounds with the various caspases were obtained by the method of Margolin et al. (J. Biol. Chem., 272 pp. 7223-7228 (1997)). Assays were performed in 10 mM Tris (Sigma Corp, St Louis Mo.) pH 7.5, 1 mM Dithiothreitol (DTT, Research Organic INC, Cleveland, Ohio) and 0.1% CHAPS (Pierce, Rockford Ill.) at 37° C. For caspase-3, a solution of 8% glycerol was added to the assay buffer to improve enzyme stability. A 65 μL aliquot of the assay buffer and 5 μL aliquot of the appropriate dilutions of inhibitor in DMSO where pipetted into a 96 well plate, treated with 10 μL of caspase, then diluted in assay buffer (0.5-40 nM active protein by active site titration). A control containing DMSO but no compound was included for each determination. The plates were then incubated for 15 minutes at 37° C., before addition of the appropriate substrate (20 μL, final concentration 1-4×KM, final assay volume 100 μL) to initiate the reaction. Reaction rates were measured at 37° C. either by following the time dependant increase in absorbance at 405 nm (for the pNA substrates) or in fluorescence (Ex 390, Em 460) (for the AMC substrates). The rates obtained were plotted against inhibitor concentration and the data fit to the Morrison tight-binding equation for competitive inhibitors (Morrison, J. F., Biochem. Biophys. Acta, 185 pp. 269-286 (1969)). The substrates used for the individual assays were as follows:
Caspase-1 Suc-YVAD-pNA (Bachem, King of Prussia, Pa.) (final concentration in the assay 80 μM),

In assay [1] the test system is Human whole blood, IL-1β production. Nature of the assay: Whole blood assay for IL-1β production. It counts as cell-based. The settings on record: LPS-stimulated whole blood, IL-1β by ELISA. On the procedure:
The whole blood assay is a simple method for measuring the production of IL-1β (or other cytokines) and the activity of potential inhibitors. The complexity of this assay system, with its full complement of lymphoid and inflammatory cell types, spectrum of plasma proteins and red blood cells is an ideal in vitro representation of human in vivo physiologic conditions.
Set incubator or water bath at 30° C. Aliquot 0.25 ml of blood into 1.5 ml eppendorf tubes. Note: be sure to invert the whole blood sample tubes after every two aliquots. Differences in replicates may result if the cells sediment and are not uniformly suspended. Use of a positive displacement pipette will also minimize differences between replicate aliquots.
Prepare drug dilutions in sterile pyrogen-free saline by serial dilution. A dilution series which brackets the apparent Ki for a test compound determined in an ICE inhibition assay is generally used for the primary compound screen. For extremely hydrophobic compounds, prepare compound dilutions in fresh plasma obtained from the same blood donor or in PBS-containing 5% DMSO to enhance solubility.
Add 25 μl test compound dilution or vehicle control and gently mix the sample. Then add 5.0 μl LPS solution (250 ng/ml stocked prepared fresh: 5.0 ng/ml final concentration LPS), and mix again. Incubate the tubes at […] in a water bath for 16-18 hr with occasional mixing. Alternatively, the tubes can be placed in a rotator set at 4 rpm for the same incubation period. This assay should be set up in duplicate or triplicate with the following controls: negative control—no LPS; positive control—no test inhibitor; vehicle control—the highest concentration of DMSO or compound solvent used in the experiment. Additional saline is added to all control tubes to normalize volumes for both control and experimental whole blood test samples.
After the incubation period, whole blood samples are centrifuged for 10 minutes at ^˜2000 rpm in the microfuge, plasma is transferred to a fresh microfuge tube and centrifuged at 1000×g to pellet residual platelets if necessary. Plasma samples may be stored frozen at −70° C. prior to assay for cytokine levels by ELISA.
R & D Systems (614 McKinley Place N.E. Minneapolis, Minn. 55413) Quantikine kits may be used for measurement of IL-1β and TNF-α. The assays are performed according to the manufacture's directions. IL-1β levels of ^˜1-5 ng/ml in positive controls among a range of individuals may be observed. A 1:200 dilution of plasma for all samples is usually sufficient for experiments for ELISA results to fall on the linear range of the ELISA standard curves. It may be necessary to optimize standard dilutions if you observe differences in the whole blood assay. Nerad, J. L. et al., J. Leukocyte Biol., 52, pp. 687-692 (1992).
(In general: ELISA stands for enzyme-linked immunosorbent assay.)

Molecules are shown by their SMILES. pIC50, pKi: −log10 of the molar value.

The pKi is the Ki on a negative log10 scale, so that one unit is a factor of ten. Read a high pKi as a small Ki. What is called pIC50 is the negative decadic logarithm of the IC50, by convention in mol/L.

In turn, `CNc1ccc(C(=O)N[C@@H](C)C(=O)N2CCC[C@H]2C(=O)N[C@H](C=O)CC(=O)O)cc1Cl` [Example 7aa] showed a pKi at Caspase-1 greater than 8.00. Moreover, the pIC50 in assay [1] was 5.12 to 5.60.
Turning to `C[C@H](NC(=O)c1cccc(C#N)c1)C(=O)N1CCC[C@H]1C(=O)N[C@H](C=O)CC(=O)O` [Example 7ad], on Caspase-1, the pKi is 6.00 to 8.00. Moreover, in assay [1], the pIC50 is 5.12 to 5.60.
In the same order, the values of `C[C@H](NC(=O)c1cccc(Cl)c1)C(=O)N1CCC[C@H]1C(=O)N[C@H](C=O)CC(=O)O` [Example 7ah] are greater than 8.00 and 5.12 to 5.60.
Compound `C[C@H](NC(=O)c1cc(Cl)cc(Cl)c1)C(=O)N1CCC[C@H]1C(=O)N[C@H](C=O)CC(=O)O` [Example 7ai] gave a pKi on Caspase-1 greater than 8.00. This compound also gave a pIC50 in assay [1] of 5.12 to 5.60.
At Caspase-1, `C[C@H](NC(=O)c1ccc(Cl)c(Cl)c1)C(=O)N1CCC[C@H]1C(=O)N[C@H](C=O)CC(=O)O` [Example 7aj] showed a pKi greater than 8.00. This compound also gave a pIC50 in assay [1] of less than 5.12.
Regarding `C[C@H](NC(=O)c1ccc(F)c(Cl)c1)C(=O)N1CCC[C@H]1C(=O)N[C@H](C=O)CC(=O)O` [Example 7ak], on Caspase-1, the pKi was greater than 8.00. Moreover, the pIC50 in assay [1] is 5.12 to 5.60.
In the same order, the values of `C[C@H](NC(=O)c1cccc(C(F)(F)F)c1)C(=O)N1CCC[C@H]1C(=O)N[C@H](C=O)CC(=O)O` [Example 7am] are greater than 8.00 and 5.12 to 5.60.
Consider `Cc1ccc(Cl)cc1C(=O)N[C@@H](C)C(=O)N1CCC[C@H]1C(=O)N[C@H](C=O)CC(=O)O` [Example 7an], for which the pKi at Caspase-1 was greater than 8.00. This compound gave a pIC50 in assay [1] of 5.12 to 5.60.
On the same counts, the results for `Cc1c(Cl)cccc1C(=O)N[C@@H](C)C(=O)N1CCC[C@H]1C(=O)N[C@H](C=O)CC(=O)O` [Example 7ao] are 6.00 to 8.00 and 5.12 to 5.60.
On the same counts, the results for `C[C@H](NC(=O)C(=O)c1ccccc1)C(=O)N1CCC[C@H]1C(=O)N[C@H](C=O)CC(=O)O` [Example 7ap] are 6.00 to 8.00 and less than 5.12.
On the same counts, the results for `CC(C)[C@H](NC(=O)c1ccc(N)c(Cl)c1)C(=O)N1CC(F)(F)C[C@H]1C(=O)N[C@H](C=O)CC(=O)O` [Example 27d] are greater than 8.00 and greater than 5.60.
Turning to `CC[C@H](NC(=O)c1ccc(N)c(Cl)c1)C(=O)N1CC(F)(F)C[C@H]1C(=O)N[C@H](C=O)CC(=O)O` [Example 27e], the pKi at Caspase-1 is 6.00 to 8.00. This compound also showed a pIC50 in assay [1] greater than 5.60.
Consider `C[C@H](NC(=O)c1cccc2ccccc12)C(=O)N1CC(F)(F)C[C@H]1C(=O)N[C@H](C=O)CC(=O)O` [Example 27f], for which the pKi on Caspase-1 is 6.00 to 8.00. Further, the pIC50 in assay [1] was 5.12 to 5.60.
`C[C@H](NC(=O)c1cc(Cl)c(O)c(Cl)c1)C(=O)N1CC(F)(F)C[C@H]1C(=O)N[C@H](C=O)CC(=O)O` [Example 27g]: the pKi at Caspase-1 is greater than 8.00. For the same compound, in assay [1], the pIC50 is 5.12 to 5.60.
On Caspase-1, `COc1c(Cl)cc(C(=O)N[C@@H](C)C(=O)N2CC(F)(F)C[C@H]2C(=O)N[C@H](C=O)CC(=O)O)cc1Cl` [Example 27h] gave a pKi of 6.00 to 8.00. In assay [1], the pIC50 is 5.12 to 5.60.
`COc1c(C)cc(C(=O)N[C@@H](C)C(=O)N2CC(F)(F)C[C@H]2C(=O)N[C@H](C=O)CC(=O)O)cc1C` [Example 27i]: at Caspase-1, the pKi was 6.00 to 8.00. Also, in assay [1], the pIC50 is 5.12 to 5.60.
On the same counts, the results for `C[C@H](NC(=O)c1nccc2ccccc12)C(=O)N1CC(F)(F)C[C@H]1C(=O)N[C@H](C=O)CC(=O)O` [Example 27l] are 6.00 to 8.00 and 5.12 to 5.60.
On the same counts, the results for `C[C@H](NC(=O)c1cccc(C(F)(F)F)c1)C(=O)N1CC(F)(F)C[C@H]1C(=O)N[C@H](C=O)CC(=O)O` [Example 27m] are 6.00 to 8.00 and 5.12 to 5.60.
Compound `C[C@H](NC(=O)c1ccc2[nH]cnc2c1)C(=O)N1CC(F)(F)C[C@H]1C(=O)N[C@H](C=O)CC(=O)O` [Example 27n] showed a pKi on Caspase-1 of 6.00 to 8.00. This compound also had a pIC50 in assay [1] greater than 5.60.
On the same counts, the results for `COc1ccc(C(=O)N[C@@H](C)C(=O)N[C@@H](C)C(=O)N[C@H](C=O)CC(=O)O)cc1` [Example 29s] are 6.00 to 8.00 and greater than 5.60.
In the same order, the values of `C[C@H](NC(=O)c1ccc(N(C)C)c(Cl)c1)C(=O)N1CCC[C@H]1C(=O)N[C@H](C=O)CC(=O)O` [Example 122m, 3-({1-[2-(3-Chloro-4-dimethylamino-benzoylamino)-propionyl]-pyrrolidine-2-carbonyl}-amino)-4-oxo-butyric acid] are 6.00 to 8.00 and 5.12 to 5.60.
In the same order, the values of `C[C@H](NC(=O)c1c(F)c(F)c(N)c(F)c1F)C(=O)N1CCC[C@H]1C(=O)N[C@H](C=O)CC(=O)O` [Example 122p, 3-({1-[2-(4-Amino-2,3,5,6-tetrafluoro-benzoylamino)-propionyl]-pyrrolidine-2-carbonyl}-amino)-4-oxo-butyric acid] are greater than 8.00 and 5.12 to 5.60.
The compound `C[C@H](NC(=O)c1ccc2ncccc2c1)C(=O)N1CCC[C@H]1C(=O)N[C@H](C=O)CC(=O)O` [Example 122q, 4-Oxo-3-[(1-{2-[(quinoline-6-carbonyl)-amino]-propionyl}-pyrrolidine-2-carbonyl)-amino]-butyric acid] had a pKi at Caspase-1 of 6.00 to 8.00. The same compound gave a pIC50 in assay [1] of 5.12 to 5.60.
In the same order, the values of `C[C@H](NC(=O)c1ccc(NC(=O)C(C)(C)C)c(Cl)c1)C(=O)N1CCC[C@H]1C(=O)N[C@H](C=O)CC(=O)O` [Example 122s, 3-[(1-{2-[3-Chloro-4-(2,2-dimethyl-propionylamino)-benzoylamino]-propionyl}-pyrrolidine-2-carbonyl)-amino]-4-oxo-butyric acid] are 6.00 to 8.00 and 5.12 to 5.60.
In turn, `CC(NC(=O)c1ccc(N)c(Cl)c1)C(=O)N1CC(F)CC1C(=O)NC(C=O)CC(=O)O` (stereo not drawn) [Example 123a, 3-({1-[2-(4-Amino-3-chloro-benzoylamino)-propionyl]-4-fluoro-pyrrolidine-2-carbonyl}-amino)-4-oxo-butyric acid] gave a pKi on Caspase-1 of 6.00 to 8.00. In assay [1], this compound showed a pIC50 greater than 5.60.
The compound `CC(=O)Nc1ccc(C(=O)NC(C)C(=O)N2CC(F)(F)CC2C(=O)NC(C=O)CC(=O)O)cc1Cl` (stereo not drawn) [Example 123b, 3-({1-[2-(4-Acetylamino-3-chloro-benzoylamino)-propionyl]-4,4-difluoro-pyrrolidine-2-carbonyl}-amino)-4-oxo-butyric acid] showed a pKi at Caspase-1 of 6.00 to 8.00. Further, in assay [1], the pIC50 was 5.12 to 5.60.
The compound `Nc1ccc(C(=O)NCC(=O)N2CC(F)(F)C[C@H]2C(=O)N[C@H](C=O)CC(=O)O)cc1Cl` [Example G2, 3-({1-[(4-Amino-3-chloro-benzoylamino)-acetyl]-4,4-difluoro-pyrrolidine-2-carbonyl}-amino)-4-oxo-butyric acid] had a pKi at Caspase-1 of 6.00 to 8.00. Also, the pIC50 in assay [1] is 5.12 to 5.60.

For the origin of these results see patent US20030232986A1, “Inhibitors of caspases” (Vertex Pharmaceuticals Incorporated, priority 1998, published 2003).
